The values that follow come from paper PMC9131456, “Structure-Based Discovery of Lipoteichoic Acid Synthase Inhibitors” (Journal of Chemical Information and Modeling, 2022).

In assay [1] the test system is S. aureus (strain Newman). As to the kind of experiment: Antimicrobial microdilution broth assay (growth inhibition). The format is cell-based. Conditions: for IC50: S. aureus strain Newman growth, OD600nm after 20 h at 37 °C, MH2 broth, mean ± s.e.m., n = 3. On the procedure:
(§1) All the compounds tested in this study were dissolved in dimethyl sulfoxide (DMSO) at an initial stock concentration of 20 mM and stored at −20 °C. These compounds were tested for their antimicrobial activity using the microdilution broth method[66] following the protocol described by Richter et al.[30] Briefly, overnight cultures of S. aureus (strain Newman) grown at 37 °C in cation-adjusted Mueller Hinton II (MH2) broth were adjusted to an OD600nm of 0.6 before back-diluted with a factor of 1:2000 with the same broth. After that, 200 μL of the diluted bacterial culture were dispensed into each well of 96-well plates supplemented with the compounds to the desired concentrations. The plates were then sealed with a moisture membrane barrier and incubated statically for 20 h at 37 °C. After that, the OD600nm values of the cultures in each well were measured using a CLARIOstar microplate reader (BMG Labtech). The procedures for the potentiation assays were by large the same as described above with some variations. In such assays, MRSA strain COL was grown in the 96-well plates supplemented with different concentrations of compound 9 with methicillin, carbenicillin, or polymyxin B in a checkerboard format. Their synergistic effects were quantified by OD600nm measurements using a CLARIOstar microplate reader (BMG Labtech).

Assay [2] deals with S. aureus (strain Newman). As to the kind of experiment: Non-lethal S. aureus lung infection mouse model. The class given is in vivo, BALB/c female mice. Conditions: single intranasal dose of 300 μg 3 h postinfection; lungs collected 24 h postinfection; 5 × 10^7 CFU intranasal. The text has this: All in vivo experiments were done at the University of Liverpool under the UK Animals (Scientific Procedures) Act 1986 guidelines. The protocols were approved by the UK Home Office and by the University of Liverpool Animal Welfare and Ethics Committee. Six to eight week old BALB/c female mice (Charles River, UK) were used in the study after being left to acclimatize for a minimum of 7 days prior to experimentation. Mice were intranasally infected with 5 × 10^7 CFU of the S. aureus (strain Newman) in 50 μL of sterile phosphate-buffered saline (PBS). The bacterial dose was prepared by incubating 50 μL of an overnight culture in brain heart infusion (BHI) broth (Oxoid, Thermo Fisher Scientific, UK) into 5 mL of fresh BHI. Once the culture reached an OD600 = 2–3, the bacterial numbers were adjusted to the desired dose using sterile PBS. Three hours postinfection, mice were intranasally treated with either 50 μL of sterile PBS (control) or with 300 μg of compounds 1771 and compound 4 dissolved in 50 μL of sterile PBS. The final DMSO concentration was 5%, and the PBS control also contained 5% DMSO. Mice were culled 24 h postinfection; lungs were collected, homogenized, and serially diluted to determine CFU counts.[70] Significant differences were determined using the unpaired two-tailed Student t-test (p = 0.0013).

Assay [3] relates to S aureus (strain Newman) biofilm. The assay can be described thus: Biofilm assay (crystal violet). The class given is cell-based. Conditions: 20 h, compound tested at 50, 25 and 12.5 μM. Here is the method: Biofilm assays were carried out on 96-well flat-bottom plates using the protocol described by […] et al.[48] Briefly, S aureus (strain Newman) was grown statically in 96-well plates at 37 °C in Tryptic soy broth supplemented with 0.5% glucose. Each well was additionally supplemented with either DMSO or compound 9 to concentrations of 50, 25, and 12.5 μM. After 20 h, the bacterial cultures from the plates were removed, and each well was rinsed with 150 μL of sterilized distilled water thrice. The plates were then incubated for 1 h at 60 °C. After that, the biofilm in each well was stained with 0.05% (w/v) of crystal violet solution using the protocol described by O'Toole.[67] Finally, the stained biofilms were solubilized with 30% acetic acid and quantified at OD600nm using the BMG Labtech CLARIOstar microplate reader.

Assay [4] has as its system S. aureus (strain Newman). The assay can be described thus: Thin-section TEM ultrastructure analysis. The class given is cell-based. The note with it: 5 μM compound 4 or 100 μM compound 9. Here is the method:
The TEM imaging protocol was adapted from Garufi et al.[68]S. aureus (strain Newman) was grown in 20 mL of MH2 broth with either DMSO, 5 μM of compound 4 or 100 μM of compound 9 at 37 °C. When the control culture had reached an OD600nm ∼ 1, the cells were pelleted at 1520g and submitted to the Cambridge Advanced Imaging Centre for preimaging processing. Briefly, the cells were washed with water and fixed with 2% glutaraldehyde-4% paraformaldehyde in 0.1 M sodium cacodylate buffer (pH 7.2) for 2 h. After fixation, the cells were stained, dehydrated, and embedded in Spurr resin. The resin was cut into thin sections and viewed using a Tecnai G2 Transmission Electron Microscope at 200 kV with a bottom-mounted AMT CCD digital camera.

Assay [5] has as its system MRSA strain COL. As to the kind of experiment: Potentiation (checkerboard synergy) assay. The class given is cell-based, S. aureus. On the procedure:
as §1

Setting [6] is: Staphylococcus aureus, NEWMAN, 20 h.
[7] abbreviates: MRSA strain COL, compound 9 at subinhibitory 12.5 μM, checkerboard.

Molecules are shown by their SMILES.

Consider `O=C(COC(=O)c1cn(-c2ccccc2)nc1-c1cccs1)Nc1nnc(-c2ccccc2)o1` [Compound 4], for which the IC50 – broadly, the point on the concentration scale where inhibition reaches its midpoint – in assay [1] was found to be 4.06 ± 0.4 µM; in assay [1] (setting [6]) it was 4.1 µM. Further, the “improvement in antimicrobial potency” value in assay [1] (compound 4 compared with 1771, S. aureus growth) is on record as 4 fold. Also, the “reduction in recoverable colonies from the lungs” value in assay [2] turned out to be 2 log.

On to `S=C(Nc1ccc(Cl)cc1)Nc1ccc(Sc2nc3ccccc3[nH]2)cc1` [Compound 9], for which, in assay [1] (S. aureus growth), the “decrease in antimicrobial potency compared with compound 8” value worked out at 4 fold. Further, the IC50 in assay [1] and in assay [1] (setting [6]) was 117 µM in each case. In addition, in assay [3], the “reduction in biofilm attachment” value was 50%. The “ultrastructure of treated S. aureus (TEM)” value in assay [4] was “swollen S. aureus cells with a thickened peptidoglycan layer and cell division defects”. In addition, in assay [5] (setting [7]), the “reduction of the minimum inhibitory concentration of carbenicillin” value was 32 fold. Moreover, in assay [5] (setting [7]), the “reduction of the minimum inhibitory concentration of methicillin” value worked out at 16 fold. In addition, the “increase in sensitivity toward polymyxin B” value in assay [5] (MRSA strain treated with compound 9, checkerboard) is listed as 4 fold.
